Laboratory results: patent US20220226392A1, “COMPOSITIONS AND PROCESS FOR INTEGRATING CELLS INTO EPITHELIUM” (Medizinische Hochschule Hannover, priority 2019, published 2022)

Columns and labels:
[1] = test system: human primary venous endothelial cells; test: Integration of suspended eGFP-expressing iPSC-derived endothelial cells into an endothelial cell layer pre-treated with 17β-estradiol; type: cell-based
Protocol: A confluent layer of human primary venous endothelial cells cultivated in EGM-medium was used as a representative for endothelium. This endothelial cell layer was contacted with a first composition containing 17β-estradiol in a concentration yielding 100 μM 17β-estradiol in fresh cell culture medium. After incubating this endothelial cell layer under cell culture conditions for 30 min in the presence of 100 μM 17β-estradiol, the medium was removed and replaced by a suspension of iPSC-derived endothelial cells that were genetically manipulated to constitutively express enhanced green fluorescent green protein (eGFP) in EGM-medium without added 17β-estradiol.

[2] = test system: uterine human microvascular endothelial cells; conditions: 10 nM 17β-estradiol; cited from earlier work
[3] = test system: human umbilical vein endothelial cells; conditions: 10 nM 17β-estradiol; cited from earlier work
[4] = test system: human primary venous endothelial cells; test: Loosening and regeneration of a confluent endothelial cell monolayer after contact with 17β-estradiol (phase contrast, anti-VE-cadherin and DAPI staining); type: cell-based
Protocol: As an example for an endothelium, human primary venous endothelial cells were cultivated in EGM-medium under cell culture conditions until reaching confluence. Then, the medium was removed from this exemplary epithelium and replaced by fresh EGM-medium containing 17β-estradiol in a concentration of 1 μM, 10 μM, 30 μM, 100 μM, or 300 μM. The concentrations of 17β-estradiol are also indicated in the rows of FIG. 1. […] Subsequent to the presence of the 17β-estradiol in medium, this first composition was removed and replaced by EGM-medium without added 17β-estradiol, with subsequent incubation for 4 h under cell culture conditions. The result is depicted in FIG. 1 in column C in phase contrast, and in column D after immunological staining for VE-cadherin as an essential component of adherens junctions between cells, and DAPI staining for nuclei.

SMILES: C[C@]12CC[C@@H]3c4ccc(O)cc4CC[C@H]3[C@@H]1CC[C@@H]2O [17β-estradiol]
- integration of eGFP-labelled endothelial cells of the suspension into the endothelial layer ([1]; 100 μM 17β-estradiol for 30 min, then 4 h incubation with cell suspension without 17β-estradiol, FIG. 2 column B): efficiently integrate between the original endothelial cells
- effect on endothelial cell layer and VE-cadherin expression ([1]; 100 μM 17β-estradiol, 30 min, FIG. 2 column A): loosening of the cell layer and loss of VE-cadherin expression
- permeability for FITC-labelled dextran of monolayer [2]: increases the permeability
- permeability for FITC-labelled dextran of monolayer [3]: increases the permeability
- concentration at which the endothelial layer was loosened, respectively shows disintegration ([4]; 30 min in EGM-medium, tested 1, 10, 30, 100, 300 μM, FIG. 1 columns A, B): at least 10 μM
- state of the endothelial layer after removal of 17β-estradiol ([4]; 4 h incubation in EGM-medium without 17β-estradiol after 30 min exposure, VE-cadherin and DAPI staining, FIG. 1 columns C, D): a closed layer of the endothelial cells is re-established
